Test results taken from ChEMBL document CHEMBL5338824 (J Med Chem, 2023).
Active and inactive are the calls of the source. No cut-off for these calls is given here.

What was measured:
[1] = target: T1, Protein cereblon/Bromodomain-containing protein 2 (Homo sapiens, UniProt P25440+Q96SW2); settings: HL-60, dose 0.1-1000 nM, time 4.0 hrs
Target sequence in this assay (P25440 whole entry, looked up): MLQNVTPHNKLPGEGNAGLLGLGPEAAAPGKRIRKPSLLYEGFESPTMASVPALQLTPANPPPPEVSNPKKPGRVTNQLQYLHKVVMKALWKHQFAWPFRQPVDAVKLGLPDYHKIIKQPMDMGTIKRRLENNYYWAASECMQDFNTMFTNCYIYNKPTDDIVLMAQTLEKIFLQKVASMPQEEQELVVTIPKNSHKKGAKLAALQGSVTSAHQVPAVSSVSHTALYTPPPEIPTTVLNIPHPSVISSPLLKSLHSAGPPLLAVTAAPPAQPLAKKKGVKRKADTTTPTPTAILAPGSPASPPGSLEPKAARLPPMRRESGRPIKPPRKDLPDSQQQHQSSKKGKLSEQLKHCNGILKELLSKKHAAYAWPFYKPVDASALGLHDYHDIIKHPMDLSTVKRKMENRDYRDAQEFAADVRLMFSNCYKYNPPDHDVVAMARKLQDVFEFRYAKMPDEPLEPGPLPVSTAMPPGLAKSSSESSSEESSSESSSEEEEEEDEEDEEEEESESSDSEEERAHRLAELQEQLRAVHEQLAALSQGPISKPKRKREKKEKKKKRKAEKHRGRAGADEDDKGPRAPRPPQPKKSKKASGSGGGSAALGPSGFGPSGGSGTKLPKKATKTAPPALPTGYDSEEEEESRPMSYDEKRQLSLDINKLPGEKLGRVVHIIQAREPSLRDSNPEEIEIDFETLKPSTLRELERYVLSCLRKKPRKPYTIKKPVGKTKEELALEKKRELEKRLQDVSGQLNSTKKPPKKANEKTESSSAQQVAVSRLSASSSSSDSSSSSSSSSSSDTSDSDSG
Target sequence in this assay (Q96SW2 whole entry, looked up): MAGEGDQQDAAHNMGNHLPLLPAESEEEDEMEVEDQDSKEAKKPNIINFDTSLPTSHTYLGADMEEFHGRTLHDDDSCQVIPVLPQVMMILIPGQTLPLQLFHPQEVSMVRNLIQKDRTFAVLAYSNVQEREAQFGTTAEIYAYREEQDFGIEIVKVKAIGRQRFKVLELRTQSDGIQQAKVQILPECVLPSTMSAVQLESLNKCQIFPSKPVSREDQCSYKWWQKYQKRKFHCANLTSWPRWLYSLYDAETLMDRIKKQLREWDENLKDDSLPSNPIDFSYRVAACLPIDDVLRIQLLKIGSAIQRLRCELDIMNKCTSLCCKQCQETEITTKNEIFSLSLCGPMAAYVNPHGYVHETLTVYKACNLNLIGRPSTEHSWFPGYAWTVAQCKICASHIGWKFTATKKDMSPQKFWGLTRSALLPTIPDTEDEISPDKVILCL

[2] = target: T1, Protein cereblon/Bromodomain-containing protein 2; settings: T47D, dose 0.1-1000 nM, time 4.0 hrs
Target sequence in this assay (P25440 whole entry, looked up): as the sequence (P25440 whole entry, looked up) above
Target sequence in this assay (Q96SW2 whole entry, looked up): as the sequence (Q96SW2 whole entry, looked up) above

[3] = target: T1, Protein cereblon/Bromodomain-containing protein 2; settings: MDA-MB-453, dose 0.1-1000 nM, time 4.0 hrs
Target sequence in this assay (P25440 whole entry, looked up): as the sequence (P25440 whole entry, looked up) above
Target sequence in this assay (Q96SW2 whole entry, looked up): as the sequence (Q96SW2 whole entry, looked up) above

RS4-11 = experiment: Antiproliferative activity against human RS4-11 cells assessed as cell growth inhibition incubated for 4 days by WST-8 assay; type: functional, cell-based; settings: RS4-11, 96 h
MDA-MB-453 = experiment: Antiproliferative activity against human MDA-MB-453 cells assessed as cell growth inhibition incubated for 4 days by WST-8 assay; type: functional, cell-based; settings: MDA-MB-453, 96 h
[4] = target: T2, Protein cereblon/Bromodomain-containing protein 3 (Homo sapiens, UniProt Q15059+Q96SW2); settings: MDA-MB-453, dose 0.1-1000 nM, time 4.0 hrs
Target sequence in this assay (Q15059 2-726 limits assumed): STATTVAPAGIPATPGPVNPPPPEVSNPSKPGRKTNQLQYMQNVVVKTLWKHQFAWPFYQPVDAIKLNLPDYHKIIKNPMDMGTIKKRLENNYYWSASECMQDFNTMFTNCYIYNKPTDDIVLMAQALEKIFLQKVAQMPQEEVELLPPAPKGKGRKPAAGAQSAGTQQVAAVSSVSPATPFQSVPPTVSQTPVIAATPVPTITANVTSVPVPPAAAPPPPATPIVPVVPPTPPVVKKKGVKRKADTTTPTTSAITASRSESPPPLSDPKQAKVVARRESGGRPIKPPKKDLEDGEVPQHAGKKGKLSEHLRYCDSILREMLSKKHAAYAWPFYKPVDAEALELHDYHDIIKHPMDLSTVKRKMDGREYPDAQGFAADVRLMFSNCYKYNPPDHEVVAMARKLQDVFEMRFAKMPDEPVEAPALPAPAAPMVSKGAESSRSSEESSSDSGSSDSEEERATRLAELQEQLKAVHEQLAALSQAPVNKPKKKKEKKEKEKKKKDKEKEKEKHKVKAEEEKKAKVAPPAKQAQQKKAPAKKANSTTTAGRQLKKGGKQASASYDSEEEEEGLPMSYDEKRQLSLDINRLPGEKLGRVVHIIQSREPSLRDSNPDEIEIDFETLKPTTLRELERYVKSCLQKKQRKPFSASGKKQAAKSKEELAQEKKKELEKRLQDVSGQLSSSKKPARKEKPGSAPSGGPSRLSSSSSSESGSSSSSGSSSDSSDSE
Target sequence in this assay (Q96SW2 whole entry partner): as the sequence (Q96SW2 whole entry, looked up) above

MV4-11 [5] = experiment: Antitumor activity against human MV4-11 cells xenografted in SCID mouse assessed as decrease in tumor growth at 20 mg/kg,ip qd administrated and measured after 48 hrs; type: functional, organism-based
MOLM-13 = experiment: Antiproliferative activity against human MOLM-13 cells assessed as cell growth inhibition incubated for 4 days by WST-8 assay; type: functional, cell-based; settings: MOLM-13, 96 h
T47D = experiment: Antiproliferative activity against human T47D cells assessed as cell growth inhibition incubated for 4 days by WST-8 assay; type: functional, cell-based; settings: 96 h
[6] = target: T2, Protein cereblon/Bromodomain-containing protein 3; settings: RS4-11, dose 0.1-1000 nM, time 4.0 hrs
Target sequence in this assay (Q15059 2-726 limits assumed): as the sequence (Q15059 2-726 limits assumed) above
Target sequence in this assay (Q96SW2 whole entry partner): as the sequence (Q96SW2 whole entry, looked up) above

MCF7 = experiment: Antiproliferative activity against human MCF7 cells assessed as cell growth inhibition incubated for 4 days by WST-8 assay; type: functional, cell-based; settings: MCF7, 96 h
MV4-11 [7] = experiment: Antiproliferative activity against human MV4-11 cells assessed as cell growth inhibition incubated for 4 days by WST-8 assay; type: functional, cell-based; settings: MV4-11, 96 h
[8] = target: T2, Protein cereblon/Bromodomain-containing protein 3; settings: T47D, dose 0.1-1000 nM, time 4.0 hrs
Target sequence in this assay (Q15059 2-726 limits assumed): as the sequence (Q15059 2-726 limits assumed) above
Target sequence in this assay (Q96SW2 whole entry partner): as the sequence (Q96SW2 whole entry, looked up) above

[9] = target: T1, Protein cereblon/Bromodomain-containing protein 2; settings: RS4-11, dose 0.1-1000 nM, time 4.0 hrs
Target sequence in this assay (P25440 whole entry, looked up): as the sequence (P25440 whole entry, looked up) above
Target sequence in this assay (Q96SW2 whole entry, looked up): as the sequence (Q96SW2 whole entry, looked up) above

[10] = target: T1, Protein cereblon/Bromodomain-containing protein 2; settings: MCF7, dose 0.1-1000 nM, time 4.0 hrs
Target sequence in this assay (P25440 whole entry, looked up): as the sequence (P25440 whole entry, looked up) above
Target sequence in this assay (Q96SW2 whole entry, looked up): as the sequence (Q96SW2 whole entry, looked up) above

HL-60 = experiment: Antiproliferative activity against human HL-60 cells assessed as cell growth inhibition incubated for 4 days by WST-8 assay; type: functional, cell-based; settings: HL-60, 96 h
[11] = target: T1, Protein cereblon/Bromodomain-containing protein 2; settings: MOLM-13, dose 0.1-1000 nM, time 4.0 hrs
Target sequence in this assay (P25440 whole entry, looked up): as the sequence (P25440 whole entry, looked up) above
Target sequence in this assay (Q96SW2 whole entry, looked up): as the sequence (Q96SW2 whole entry, looked up) above

[12] = target: T2, Protein cereblon/Bromodomain-containing protein 3; settings: MV4-11, dose 0.1-1000 nM, time 4.0 hrs
Target sequence in this assay (Q15059 2-726 limits assumed): as the sequence (Q15059 2-726 limits assumed) above
Target sequence in this assay (Q96SW2 whole entry partner): as the sequence (Q96SW2 whole entry, looked up) above

[13] = Toxicity in SCID mouse xenografted with human MV4-11 cells assessed as toxic signs at 20 mg/kg,ip qd administrated 5 days per week for 4 weeks; type: organism-based; settings: in vivo, 672 h, time 28 day
[14] = Toxicity in SCID mouse xenografted with human MDA-MB-231 cells assessed as toxic signs at 20 mg/kg,ip qd administrated 5 days per week for 4 weeks; type: organism-based; settings: in vivo, 672 h, time 28 day
[15] = target: T2, Protein cereblon/Bromodomain-containing protein 3; settings: HL-60, dose 0.1-1000 nM, time 4.0 hrs
Target sequence in this assay (Q15059 2-726 limits assumed): as the sequence (Q15059 2-726 limits assumed) above
Target sequence in this assay (Q96SW2 whole entry partner): as the sequence (Q96SW2 whole entry, looked up) above

[16] = target: T2, Protein cereblon/Bromodomain-containing protein 3; settings: MCF7, dose 0.1-1000 nM, time 4.0 hrs
Target sequence in this assay (Q15059 2-726 limits assumed): as the sequence (Q15059 2-726 limits assumed) above
Target sequence in this assay (Q96SW2 whole entry partner): as the sequence (Q96SW2 whole entry, looked up) above

[17] = Toxicity in SCID mouse xenografted with human MV4-11 cells assessed as body weight loss at 20 mg/kg,ip qd administrated 5 days per week for 4 weeks; type: organism-based; settings: in vivo, 672 h, time 28 day
[18] = target: T1, Protein cereblon/Bromodomain-containing protein 2; settings: MDA-MB-231, dose 0.1-1000 nM, time 4.0 hrs
[19] = Toxicity in SCID mouse xenografted with human MDA-MB-231 cells assessed as body weight loss at 20 mg/kg,ip qd administrated 5 days per week for 4 weeks; type: organism-based; settings: in vivo, 672 h, time 28 day
[20] = target: T1, Protein cereblon/Bromodomain-containing protein 2; settings: MV4-11, dose 0.1-1000 nM, time 4.0 hrs
MV4-11 [21] = experiment: Antitumor activity against human MV4-11 cells xenografted in SCID mouse assessed as inhibition of tumor growth at 20 mg/kg,ip qd administrated and measured after 1 week; type: functional; settings: MV4-11, 168 h, time 1 weeks
[22] = target: T2, Protein cereblon/Bromodomain-containing protein 3; settings: MOLM-13, dose 0.1-1000 nM, time 4.0 hrs
[23] = target: T2, Protein cereblon/Bromodomain-containing protein 3; settings: MDA-MB-231, dose 0.1-1000 nM, time 4.0 hrs
MDA-MB-231 [24] = experiment: Antiproliferative activity against human MDA-MB-231 cells assessed as cell growth inhibition incubated for 4 days by WST-8 assay; type: functional, cell-based; settings: MDA-MB-231, 96 h
[25] = target: T1, Protein cereblon/Bromodomain-containing protein 2; experiment: In vivo protac activity at CRBN/BRD2 in human MV4-11 cells xenografted in SCID mouse assessed as degradation of BRD2 protein at 20 mg/kg,ip administrated and measured at 3 to 48 hrs by Western blotting analysis; type: functional, organism-based; settings: time lower 3.0 hrs, time upper […]
MDA-MB-231 [26] = experiment: Antitumor activity against human MDA-MB-231 cells xenografted in SCID mouse assessed as inhibition of tumor growth at 20 mg/kg,ip qd administrated 5 days per week for 4 weeks; type: functional; settings: MDA-MB-231, 672 h, time 28 day
MV4-11 [27] = experiment: Antitumor activity against human MV4-11 cells xenografted in SCID mouse assessed as inhibition of tumor growth at 20 mg/kg,ip qd administrated 5 days per week for 4 weeks; type: functional; settings: MV4-11, 672 h, time 28 day
[28] = target: T2, Protein cereblon/Bromodomain-containing protein 3; experiment: In vivo protac activity at CRBN/BRD3 in human MV4-11 cells xenografted in SCID mouse assessed as degradation of BRD3 protein at 20 mg/kg,ip administrated and measured at 3 to 48 hrs by Western blotting analysis; type: functional, organism-based; settings: time lower 3.0 hrs, time upper […]
[29] = target: T3, Protein cereblon/Bromodomain-containing protein 4 (Homo sapiens, UniProt O60885+Q96SW2); experiment: PROTAC activity at CRBN/BRD4 in human MV4-11 cells assessed as degradation of BRD4 protein level incubated for 4 hrs by Western blotting assay; type: cell-based
T3 sequence (Q96SW2 whole entry, looked up, other chains not shown): as the sequence (Q96SW2 whole entry, looked up) above

[30] = target: T1, Protein cereblon/Bromodomain-containing protein 2; experiment: PROTAC activity at CRBN/BRD2 in human MV4-11 cells assessed as degradation of BRD2 protein level incubated for 4 hrs by Western blotting assay; type: cell-based
Target sequence in this assay (P25440 whole entry): as the sequence (P25440 whole entry, looked up) above
Target sequence in this assay (Q96SW2 whole entry): as the sequence (Q96SW2 whole entry, looked up) above

[31] = target: T3, Protein cereblon/Bromodomain-containing protein 4; settings: MV4-11, dose 0.1-1000 nM, time 4.0 hrs
[32] = target: T2, Protein cereblon/Bromodomain-containing protein 3; experiment: PROTAC activity at CRBN/BRD3 in human MV4-11 cells assessed as degradation of BRD3 protein level incubated for 4 hrs by Western blotting assay; type: cell-based
Target sequence in this assay (Q15059 whole entry): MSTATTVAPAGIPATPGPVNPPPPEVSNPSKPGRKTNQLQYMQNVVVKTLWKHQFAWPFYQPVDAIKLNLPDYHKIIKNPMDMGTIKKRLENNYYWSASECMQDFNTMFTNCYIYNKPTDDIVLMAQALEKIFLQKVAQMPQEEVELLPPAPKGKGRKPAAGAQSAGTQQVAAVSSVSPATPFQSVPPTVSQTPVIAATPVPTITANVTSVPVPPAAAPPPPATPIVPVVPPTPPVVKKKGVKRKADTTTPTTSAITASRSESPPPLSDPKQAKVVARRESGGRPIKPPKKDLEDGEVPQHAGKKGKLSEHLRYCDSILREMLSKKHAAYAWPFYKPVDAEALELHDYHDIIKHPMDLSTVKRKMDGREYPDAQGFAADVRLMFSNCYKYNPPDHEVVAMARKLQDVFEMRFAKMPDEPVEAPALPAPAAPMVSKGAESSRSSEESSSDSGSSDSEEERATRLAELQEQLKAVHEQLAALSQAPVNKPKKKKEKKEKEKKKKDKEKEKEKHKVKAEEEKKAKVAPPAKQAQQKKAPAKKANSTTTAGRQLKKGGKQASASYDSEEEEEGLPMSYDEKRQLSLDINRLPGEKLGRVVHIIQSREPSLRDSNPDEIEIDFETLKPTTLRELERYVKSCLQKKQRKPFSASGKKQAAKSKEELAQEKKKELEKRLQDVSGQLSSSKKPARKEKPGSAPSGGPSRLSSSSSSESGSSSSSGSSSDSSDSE
Target sequence in this assay (Q96SW2 whole entry): as the sequence (Q96SW2 whole entry, looked up) above

SMILES	Emax [1]	Emax [2]	Emax [3]	IC50 (RS4-11)	IC50 (MDA-MB-453)	Emax [4]	IC50 (MOLM-13)	IC50 (T47D)	Emax [6]	IC50 (MCF7)	IC50 (MV4-11 [7])	Emax [8]	Emax [9]	Emax [10]	IC50 (HL-60)	Emax [11]	Emax [12]	Emax [15]	Emax [20]	IC50 (MDA-MB-231 [24])	further results
Cc1nnc2n1-c1sc(C#Cc3cnn(C4(CCN5CCN(C)CC5)CN(c5cccc6c5C(=O)N(C5CCC(=O)NC5=O)C6=O)C4)c3)c(Cc3ccccc3)c1COC2 (stereo unspecified)	18%	6%	0%	4.6 nM	80.9 nM	14%	69 nM	3.8 nM	15%	38.4 nM	11 nM	25%	15%	11%	5.1 nM	0%	0%	10%	0%	17.6 nM	Activity (MV4-11 [5]): Active; Activity [13]: Non-Toxic; Activity [14]: Non-Toxic; Emax [16]: 0%; Activity [17]: Non-Toxic; Emax [18]: 0%; Activity [19]: Non-Toxic; inhibition in vivo at 20 mg/kg (MV4-11 [21]): 56%; Emax [22]: 9%; Emax [23]: 0%
Cc1nnc2n1-c1sc(C#Cc3cnn(C4CCN(c5cccc6c5C(=O)N(C5CCC(=O)NC5=O)C6=O)CC4)c3)c(Cc3ccccc3)c1COC2 (stereo unspecified)	–	–	–	–	–	–	–	–	–	–	–	–	–	–	–	–	56%	–	68%	–	–
Cc1nnc2n1-c1sc(C#Cc3cnn(C4CN(c5cccc6c5C(=O)N(C5CCC(=O)NC5=O)C6=O)C4)c3)c(Cc3ccccc3)c1COC2 (stereo unspecified)	10%	0%	18%	6.4 nM	59.9 nM	5%	25 nM	3.3 nM	6%	37.8 nM	17 nM	22%	< 10%	0%	4.9 nM	27%	0%	18%	0%	15.9 nM	Emax [16]: 34%; Emax [18]: 0%; Emax [22]: 13%; Emax [23]: 19%
Cc1nnc2n1-c1sc(C#Cc3cnn(C)c3)c(Cc3ccccc3)c1COC2	–	–	–	186 nM	689 nM	–	212 nM	623 nM	–	804 nM	149 nM	–	–	–	113 nM	–	0%	–	0%	151 nM	Activity [25]: inactive; inhibition in vivo at 20 mg/kg (MDA-MB-231 [26]): 49%; inhibition in vivo at 20 mg/kg (MV4-11 [27]): 63%; Activity [28]: inactive
Cc1nnc2n1-c1sc(C#Cc3cnn(C4CN(c5cccc6c5C(=O)N(C5CCC(=O)N(C)C5=O)C6=O)C4)c3)c(Cc3ccccc3)c1COC2 (stereo unspecified)	–	–	–	–	–	–	–	–	–	–	–	–	–	–	–	–	12%	–	5%	–	DC50 [29]: > 1000 nM; DC50 [30]: > 1000 nM; Emax [31]: 2%; DC50 [32]: > 1000 nM
